Drawing on ChEMBL document CHEMBL1208668, “Synthesis and biological evaluation of novel spiro 6-methoxytetralin-1,3'-pyrrolidine based organoselenocyanates against cadmium-induced oxidative and hepatic damage in mice” (2010), this text covers Ratio and inhibition for four compounds.

The subject of experiment [1] is Mus musculus. Description: Hepatoprotective activity against cadmium-induced hepatic damage in Swiss albino mouse assessed as ratio of liver weight to body weight at 3 mg/kg, po administered 7 days prior to first cadmium treatment followed by administration for 20 days concomitantly with cadmium. It is filed as functional.
The subject of experiment [2] is Mus musculus. Description: Hepatoprotective activity against cadmium-induced oxidative damage in Swiss albino mouse assessed as inhibition of cadmium-induced CAT activity depletion at 3 mg/kg, po administered for 20 days concomitantly with cadmium. The class given is functional, organism-based. Also noted: dose 3 mg/kg.
Experiment [3] relates to Mus musculus. Description: Hepatoprotective activity against cadmium-induced hepatic damage in Swiss albino mouse assessed as inhibition of cadmium-induced elevation in serum ALT level at 3 mg/kg, po administered 7 days prior to first cadmium treatment followed by administration for 20 days concomitantly with cadmium. The class given is functional, organism-based. Set-up: dose 3 mg/kg.

Experiment [4] relates to Mus musculus. Description: Hepatoprotective activity against cadmium-induced hepatic damage in Swiss albino mouse assessed as inhibition of cadmium-induced elevation in serum AST level at 3 mg/kg, po administered for 20 days concomitantly with cadmium. Set-up: dose 3 mg/kg. The class given is functional, organism-based.
Experiment [5] relates to Mus musculus. Description: Renoprotective activity against cadmium-induced renal damage in Swiss albino mouse assessed as inhibition of cadmium-induced creatinine level change at 3 mg/kg, po administered 7 days prior to first cadmium treatment followed by administration for 20 days concomitantly with cadmium. The class given is functional, organism-based. Set-up: dose 3 mg/kg.

In experiment [6] the test system is Mus musculus. Description: Hepatoprotective activity against cadmium-induced hepatic damage in Swiss albino mouse assessed as ratio of liver weight to body weight at 3 mg/kg, po administered for 20 days concomitantly with cadmium. It is filed as functional.
The subject of experiment [7] is Mus musculus. Description: Renoprotective activity against cadmium-induced renal damage in Swiss albino mouse assessed as inhibition of cadmium-induced BUN level […] at 3 mg/kg, po administered for 20 days concomitantly with cadmium. It is filed as functional, organism-based. Also noted: dose 3 mg/kg.
Experiment [8] deals with Mus musculus. Description: Hepatoprotective activity against cadmium-induced hepatic damage in Swiss albino mouse assessed as inhibition of cadmium-induced elevation in serum ALT level at 3 mg/kg, po administered for 20 days concomitantly with cadmium. Set-up: dose 3 mg/kg. The class given is functional, organism-based.
The test system of experiment [9] is Mus musculus. Description: Hepatoprotective activity against cadmium-induced hepatic damage in Swiss albino mouse assessed as inhibition of cadmium-induced liver necrosis and inflammation at 3 mg/kg, po administered for 20 days concomitantly with cadmium. It is filed as functional, organism-based. Set-up: dose 3 mg/kg.
For experiment [10], the system named is Mus musculus. Description: Hepatoprotective activity against cadmium-induced hepatic damage in Swiss albino mouse assessed as inhibition of cadmium-induced LPO level at 3 mg/kg, po administered for 20 days concomitantly with cadmium bt TBARS assay. It is filed as functional, organism-based. Set-up: dose 3 mg/kg.
Experiment [11] concerns Mus musculus. Description: Renoprotective activity against cadmium-induced renal damage in Swiss albino mouse assessed as inhibition of cadmium-induced BUN level […] at 3 mg/kg, po administered 7 days prior to first cadmium treatment followed by administration for 20 days concomitantly with cadmium. The class given is functional, organism-based. Also noted: dose 3 mg/kg.

In experiment [12] the test system is Mus musculus. Description: Renoprotective activity against cadmium-induced renal damage in Swiss albino mouse assessed as inhibition of cadmium-induced creatinine level change at 3 mg/kg, po administered for 20 days concomitantly with cadmium. The class given is functional, organism-based. Also noted: dose 3 mg/kg.
The test system of experiment [13] is Mus musculus. Description: Hepatoprotective activity against cadmium-induced oxidative damage in Swiss albino mouse assessed as inhibition of cadmium-induced SOD activity depletion at 3 mg/kg, po administered 7 days prior to first cadmium treatment followed by administration for 20 days concomitantly with cadmium. The class given is functional, organism-based. Set-up: dose 3 mg/kg.

Experiment [14] has as its system Mus musculus. Description: Hepatoprotective activity against cadmium-induced oxidative damage in Swiss albino mouse assessed as inhibition of cadmium-induced GSH depletion at 3 mg/kg, po administered 7 days prior to first cadmium treatment followed by administration for 20 days concomitantly with cadmium. Also noted: dose 3 mg/kg. The class given is functional, organism-based.

Experiment [15] has as its system Mus musculus. Description: Hepatoprotective activity against cadmium-induced hepatic damage in Swiss albino mouse assessed as inhibition of cadmium-induced elevation in serum AST level at 3 mg/kg, po administered 7 days prior to first cadmium treatment followed by administration for 20 days concomitantly with cadmium. It is filed as functional, organism-based. Set-up: dose 3 mg/kg.

Experiment [16] relates to Mus musculus. Description: Hepatoprotective activity against cadmium-induced oxidative damage in Swiss albino mouse assessed as inhibition of cadmium-induced SOD activity depletion at 3 mg/kg, po administered for 20 days concomitantly with cadmium. It is filed as functional, organism-based. Also noted: dose 3 mg/kg.
The subject of experiment [17] is Mus musculus. Description: Hepatoprotective activity against cadmium-induced oxidative damage in Swiss albino mouse assessed as inhibition of cadmium-induced GST activity depletion at 3 mg/kg, po administered 7 days prior to first cadmium treatment followed by administration for 20 days concomitantly with cadmium. The class given is functional, organism-based. Also noted: dose 3 mg/kg.

The subject of experiment [18] is Mus musculus. Description: Hepatoprotective activity against cadmium-induced oxidative damage in Swiss albino mouse assessed as inhibition of cadmium-induced GST activity depletion at 3 mg/kg, po administered for 20 days concomitantly with cadmium. It is filed as functional, organism-based. Also noted: dose 3 mg/kg.
In experiment [19] the test system is Mus musculus. Description: Hepatoprotective activity against cadmium-induced hepatic damage in Swiss albino mouse assessed as inhibition of cadmium-induced liver necrosis and inflammation at 3 mg/kg, po administered 7 days prior to first cadmium treatment followed by administration for 20 days concomitantly with cadmium. The class given is functional, organism-based. Also noted: dose 3 mg/kg.

For experiment [20], the system named is Mus musculus. Description: Hepatoprotective activity against cadmium-induced oxidative damage in Swiss albino mouse assessed as inhibition of cadmium-induced GSH depletion at 3 mg/kg, po administered for 20 days concomitantly with cadmium. It is filed as functional, organism-based. Also noted: dose 3 mg/kg.
In experiment [21] the test system is Mus musculus. Description: Hepatoprotective activity against cadmium-induced oxidative damage in Swiss albino mouse assessed as inhibition of cadmium-induced CAT activity depletion at 3 mg/kg, po administered 7 days prior to first cadmium treatment followed by administration for 20 days concomitantly with cadmium. It is filed as functional, organism-based. Also noted: dose 3 mg/kg.

The test system of experiment [22] is Mus musculus. Description: Hepatoprotective activity against cadmium-induced hepatic damage in Swiss albino mouse assessed as inhibition of cadmium-induced LPO level at 3 mg/kg, po administered 7 days prior to first cadmium treatment followed by administration for 20 days concomitantly with cadmium. It is filed as functional, organism-based. Set-up: dose 3 mg/kg.

SMILES strings stand for the structures. Calls of active or inactive are those of the source. The rule behind the calls is not given here.

Consider `COc1ccc2c(c1)CCCC21CC(=O)N(CCCCC[Se]C#N)C1=O` (stereo not drawn), for which the Ratio stood at 0.0428 in the experiment on Mus musculus [1] and 0.047 with Mus musculus [6]. Further, the inhibition entry in the experiment on Mus musculus [2], in the experiment with Mus musculus [3], in the experiment on Mus musculus [4], in the experiment with Mus musculus [7], with Mus musculus [8] and in the experiment on Mus musculus [9] was “Active” in each case. In addition, the inhibition result with Mus musculus [10], in the experiment with Mus musculus [11], in the experiment with Mus musculus [14], with Mus musculus [15], in the experiment with Mus musculus [17] and in the experiment with Mus musculus [18] was “Active” each time. The inhibition entry in the experiment with Mus musculus [19], in the experiment on Mus musculus [20], in the experiment on Mus musculus [21] and in the experiment on Mus musculus [22] was “Active” in each case. Also, the inhibition result in the experiment on Mus musculus [5], in the experiment with Mus musculus [12], in the experiment on Mus musculus [13] and in the experiment with Mus musculus [16] was “inactive” each time.
Consider `COc1ccc2c(c1)CCCC21CC(=O)N(CC[Se]C#N)C1=O` (stereo not drawn), for which the inhibition result in the experiment with Mus musculus [3], in the experiment with Mus musculus [5], in the experiment on Mus musculus [8], in the experiment on Mus musculus [12], in the experiment with Mus musculus [13] and in the experiment on Mus musculus [14] was “inactive” throughout. Besides, the inhibition entry in the experiment on Mus musculus [16] and with Mus musculus [20] was “inactive” in each case. The inhibition result in the experiment with Mus musculus [4], in the experiment with Mus musculus [10], with Mus musculus [11], in the experiment with Mus musculus [15], in the experiment on Mus musculus [17] and in the experiment on Mus musculus [18] was “Active” each time. For the same compound, the inhibition result in the experiment with Mus musculus [22] was “Active”. Besides, in the experiment with Mus musculus [6], the Ratio is listed as 0.0525.
As to `COc1ccc2c(c1)CCCC21CC(=O)N(CCCC[Se]C#N)C1=O` (stereo not drawn), the Ratio amounted to 0.0466 with Mus musculus [1] and 0.0487 with Mus musculus [6]. For the same compound, the inhibition result with Mus musculus [2], with Mus musculus [3], with Mus musculus [4], with Mus musculus [7], in the experiment on Mus musculus [8] and in the experiment on Mus musculus [10] was “Active” throughout. The inhibition result with Mus musculus [11], with Mus musculus [14], with Mus musculus [15], with Mus musculus [17], in the experiment with Mus musculus [18] and in the experiment on Mus musculus [20] was “Active” each time. Also, the inhibition result in the experiment on Mus musculus [21] and with Mus musculus [22] was “Active” in each case. Moreover, the inhibition entry with Mus musculus [5], with Mus musculus [12], in the experiment on Mus musculus [13] and with Mus musculus [16] was “inactive” throughout.
For `COc1ccc2c(c1)CCCC21CC(=O)N(CCC[Se]C#N)C1=O` (stereo not drawn), the Ratio with Mus musculus [1] was 0.0474; in the experiment with Mus musculus [6], 0.0483. Further, the inhibition result with Mus musculus [3], with Mus musculus [5], in the experiment on Mus musculus [8], in the experiment on Mus musculus [12], with Mus musculus [13] and in the experiment on Mus musculus [16] was “inactive” each time. In addition, the inhibition entry with Mus musculus [4], in the experiment on Mus musculus [10], in the experiment on Mus musculus [11], in the experiment on Mus musculus [15], in the experiment with Mus musculus [17] and in the experiment on Mus musculus [18] was “Active” throughout. Also, the inhibition entry in the experiment on Mus musculus [22] was “Active”.
